≈ marks a conversion by molar mass, not a printed value. Calls of active or inactive are those of the source. The rule behind the calls is not given here.
Tests used:
[1] = tested on: Burkholderia pseudomallei; assay: Antimicrobial activity against Burkholderia pseudomallei KHW; assay type: functional
[2] = tested on: Burkholderia pseudomallei; assay: Antimicrobial activity against Burkholderia pseudomallei KHW in presence of 500 uM prochlorperazine; assay type: functional
[3] = tested on: Burkholderia pseudomallei; assay: Antimicrobial activity against Burkholderia pseudomallei KHW in presence of 250 uM promazine; assay type: functional
[4] = tested on: Burkholderia pseudomallei; assay: Antimicrobial activity against Burkholderia pseudomallei KHW in presence of 500 uM promazine; assay type: functional
[5] = tested on: Burkholderia pseudomallei; assay: Antimicrobial activity against Burkholderia pseudomallei KHW in presence of 500 uM omeprazole; assay type: functional
[6] = tested on: Burkholderia pseudomallei; assay: Antimicrobial activity against Burkholderia pseudomallei KHW in presence of 7.8 uM omeprazole; assay type: functional
[7] = tested on: Burkholderia pseudomallei; assay: Antimicrobial activity against Burkholderia pseudomallei KHW in presence of 31.3 uM promazine; assay type: functional
[8] = tested on: Burkholderia pseudomallei; assay: Antimicrobial activity against Burkholderia pseudomallei KHW in presence of 7.8 uM chlorpromazine; assay type: functional
[9] = tested on: Burkholderia pseudomallei; assay: Antimicrobial activity against Burkholderia pseudomallei KHW in presence of 125 uM promazine; assay type: functional
[10] = tested on: Burkholderia pseudomallei; assay: Antimicrobial activity against Burkholderia pseudomallei KHW in presence of 15.6 uM omeprazole; assay type: functional
[11] = tested on: Burkholderia pseudomallei; assay: Antimicrobial activity against Burkholderia pseudomallei KHW in presence of 62.5 uM prochlorperazine; assay type: functional
[12] = tested on: Burkholderia pseudomallei; assay: Antimicrobial activity against Burkholderia pseudomallei KHW in presence of 31.3 uM prochlorperazine; assay type: functional
[13] = tested on: Burkholderia pseudomallei; assay: Antimicrobial activity against Burkholderia pseudomallei KHW in presence of 125 uM chlorpromazine; assay type: functional
[14] = tested on: Burkholderia pseudomallei; assay: Antimicrobial activity against Burkholderia pseudomallei KHW in presence of 31.3 uM omeprazole; assay type: functional
[15] = tested on: Burkholderia pseudomallei; assay: Antimicrobial activity against Burkholderia pseudomallei KHW in presence of 125 uM omeprazole; assay type: functional
[16] = tested on: Burkholderia pseudomallei; assay: Antimicrobial activity against Burkholderia pseudomallei KHW in presence of 3.9 uM prochlorperazine; assay type: functional
[17] = tested on: Burkholderia pseudomallei; assay: Antimicrobial activity against Burkholderia pseudomallei KHW in presence of 250 uM prochlorperazine; assay type: functional
[18] = tested on: Burkholderia pseudomallei; assay: Antimicrobial activity against Burkholderia pseudomallei KHW in presence of 7.8 uM promazine; assay type: functional
[19] = tested on: Burkholderia pseudomallei; assay: Antimicrobial activity against Burkholderia pseudomallei KHW in presence of 15.6 uM chlorpromazine; assay type: functional
[20] = tested on: Burkholderia pseudomallei; assay: Antimicrobial activity against Burkholderia pseudomallei KHW in presence of 1000 uM prochlorperazine; assay type: functional
[21] = tested on: Burkholderia pseudomallei; assay: Antimicrobial activity against Burkholderia pseudomallei KHW in presence of 15.6 uM promazine; assay type: functional
[22] = tested on: Burkholderia pseudomallei; assay: Antimicrobial activity against Burkholderia pseudomallei KHW in presence of 250 uM omeprazole; assay type: functional
[23] = tested on: Burkholderia pseudomallei; assay: Antimicrobial activity against Burkholderia pseudomallei KHW in presence of 7.8 uM prochlorperazine; assay type: functional
[24] = tested on: Burkholderia pseudomallei; assay: Antimicrobial activity against Burkholderia pseudomallei KHW in presence of 1000 uM omeprazole; assay type: functional
[25] = tested on: Burkholderia pseudomallei; assay: Antimicrobial activity against Burkholderia pseudomallei KHW in presence of 125 uM prochlorperazine; assay type: functional
[26] = tested on: Burkholderia pseudomallei; assay: Antimicrobial activity against Burkholderia pseudomallei KHW in presence of 1000 uM promazine; assay type: functional
[27] = tested on: Burkholderia pseudomallei; assay: Antimicrobial activity against Burkholderia pseudomallei KHW in presence of 62.5 uM omeprazole; assay type: functional
[28] = tested on: Burkholderia pseudomallei; assay: Antimicrobial activity against Burkholderia pseudomallei KHW in presence of 500 uM chlorpromazine; assay type: functional
[29] = tested on: Burkholderia pseudomallei; assay: Antimicrobial activity against Burkholderia pseudomallei KHW in presence of 1000 uM chlorpromazine; assay type: functional
[30] = tested on: Burkholderia pseudomallei; assay: Antimicrobial activity against Burkholderia pseudomallei KHW in presence of 31.3 uM chlorpromazine; assay type: functional
[31] = tested on: Burkholderia pseudomallei; assay: Antimicrobial activity against Burkholderia pseudomallei KHW in presence of 3.9 uM promazine; assay type: functional
[32] = tested on: Burkholderia pseudomallei; assay: Antimicrobial activity against Burkholderia pseudomallei KHW in presence of 15.6 uM prochlorperazine; assay type: functional
[33] = tested on: Burkholderia pseudomallei; assay: Antimicrobial activity against Burkholderia pseudomallei KHW in presence of 3.9 uM omeprazole; assay type: functional
[34] = tested on: Burkholderia pseudomallei; assay: Antimicrobial activity against Burkholderia pseudomallei KHW in presence of 3.9 uM chlorpromazine; assay type: functional
[35] = tested on: Burkholderia pseudomallei; assay: Antimicrobial activity against Burkholderia pseudomallei KHW in presence of 62.5 uM chlorpromazine; assay type: functional
[36] = tested on: Burkholderia pseudomallei; assay: Antimicrobial activity against Burkholderia pseudomallei KHW in presence of 62.5 uM promazine; assay type: functional
[37] = tested on: Burkholderia pseudomallei; assay: Antimicrobial activity against Burkholderia pseudomallei KHW in presence of 250 uM chlorpromazine; assay type: functional
[38] = tested on: Burkholderia pseudomallei; assay: Attenuation of A549 cell invasion by Burkholderia pseudomallei KHW at 8 ug/ml in presence of 500 uM chlorpromazine; assay type: functional, organism-based
[39] = tested on: Burkholderia pseudomallei; assay: Attenuation of Burkholderia pseudomallei KHW cytotoxicity in THP1 cells at 8 ug/ml in presence of 250 uM prochlorperazine; assay type: functional, organism-based; details: THP-1
[40] = tested on: Burkholderia pseudomallei; assay: Attenuation of THP1 cell invasion by Burkholderia pseudomallei KHW at 8 ug/ml in presence of 500 uM chlorpromazine; assay type: functional, organism-based; details: THP-1
[41] = tested on: Burkholderia pseudomallei; assay: Attenuation of THP1 cell invasion by Burkholderia pseudomallei KHW at 8 ug/ml; assay type: functional, organism-based; details: THP-1
[42] = tested on: Burkholderia pseudomallei; assay: Attenuation of A549 cell invasion by Burkholderia pseudomallei KHW at 8 ug/ml; assay type: functional, organism-based
[43] = tested on: Burkholderia pseudomallei; assay: Attenuation of THP1 cell invasion by Burkholderia pseudomallei KHW at 128 ug/ml; assay type: functional, organism-based; details: THP-1
[44] = tested on: Burkholderia pseudomallei; assay: Attenuation of Burkholderia pseudomallei KHW cytotoxicity in A549 cells at 8 ug/ml in presence of 500 uM chlorpromazine; assay type: functional, organism-based
[45] = tested on: Burkholderia pseudomallei; assay: Attenuation of Burkholderia pseudomallei KHW cytotoxicity in A549 cells at 128 ug/ml; assay type: functional, organism-based
[46] = tested on: Burkholderia pseudomallei; assay: Attenuation of Burkholderia pseudomallei KHW cytotoxicity in A549 cells at 8 ug/ml in presence of 250 uM prochlorperazine; assay type: functional, organism-based
[47] = tested on: Burkholderia pseudomallei; assay: Attenuation of A549 cell invasion by Burkholderia pseudomallei KHW at 128 ug/ml; assay type: functional, organism-based
[48] = tested on: Burkholderia pseudomallei; assay: Attenuation of Burkholderia pseudomallei KHW cytotoxicity in THP1 cells at 8 ug/ml in presence of 500 uM chlorpromazine; assay type: functional, organism-based; details: THP-1
[49] = tested on: Burkholderia pseudomallei; assay: Attenuation of Burkholderia pseudomallei KHW cytotoxicity in THP1 cells at 128 ug/ml; assay type: functional, organism-based; details: THP-1
[50] = tested on: Burkholderia pseudomallei; assay: Attenuation of THP1 cell invasion by Burkholderia pseudomallei KHW at 8 ug/ml in presence of 250 uM prochlorperazine; assay type: functional, organism-based; details: THP-1
[51] = tested on: Burkholderia pseudomallei; assay: Attenuation of A549 cell invasion by Burkholderia pseudomallei KHW at 8 ug/ml in presence of 250 uM prochlorperazine; assay type: functional, organism-based

CC[C@H]1OC(=O)[C@H](C)[C@@H](O[C@H]2C[C@@](C)(OC)[C@@H](O)[C@H](C)O2)[C@H](C)[C@@H](O[C@@H]2O[C@H](C)C[C@H](N(C)C)[C@H]2O)[C@](C)(O)C[C@@H](C)CN(C)[C@H](C)[C@@H](O)[C@]1(C)O [AZITHROMYCIN]
MIC [1]: 32 µg/mL (≈ 42.7 µM)
MIC [2]: < 0.25 µg/mL
MIC [3]: 32 µg/mL
MIC [4]: 16 µg/mL
MIC [5]: 16 µg/mL
MIC [6]: 32 µg/mL
MIC [7]: 32 µg/mL
MIC [8]: 32 µg/mL
MIC [9]: 32 µg/mL
MIC [10]: 32 µg/mL
MIC [11]: 32 µg/mL
MIC [12]: 32 µg/mL
MIC [13]: 16 µg/mL
MIC [14]: 32 µg/mL
MIC [15]: 32 µg/mL
MIC [16]: 32 µg/mL
MIC [17]: < 0.25 µg/mL
MIC [18]: 32 µg/mL
MIC [19]: 32 µg/mL
MIC [20]: < 0.25 µg/mL
MIC [21]: 32 µg/mL
MIC [22]: 32 µg/mL
MIC [23]: 32 µg/mL
MIC [24]: 16 µg/mL
MIC [25]: 16 µg/mL
MIC [26]: < 0.25 µg/mL
MIC [27]: 32 µg/mL
MIC [28]: 8 µg/mL
MIC [29]: < 0.25 µg/mL
MIC [30]: 32 µg/mL
MIC [31]: 32 µg/mL
MIC [32]: 32 µg/mL
MIC [33]: 32 µg/mL
MIC [34]: 32 µg/mL
MIC [35]: 32 µg/mL
MIC [36]: 32 µg/mL
MIC [37]: 16 µg/mL

CC[C@H]1OC(=O)[C@H](C)[C@@H](O[C@H]2C[C@@](C)(OC)[C@@H](O)[C@H](C)O2)[C@H](C)[C@@H](O[C@@H]2O[C@H](C)C[C@H](N(C)C)[C@H]2O)[C@](C)(O)C[C@@H](C)C(=O)[C@H](C)[C@@H](O)[C@]1(C)O [ERYTHROMYCIN]
Activity [38]: Active
Activity [39]: Active
MIC [1]: 128 µg/mL (≈ 174 µM)
MIC [2]: 8 µg/mL
MIC [3]: 64 µg/mL
Activity [40]: Active
MIC [5]: 128 µg/mL
MIC [6]: 128 µg/mL
MIC [7]: 128 µg/mL
MIC [8]: 128 µg/mL
MIC [9]: 128 µg/mL
MIC [10]: 128 µg/mL
MIC [12]: 64 µg/mL
MIC [13]: 128 µg/mL
MIC [14]: 128 µg/mL
MIC [15]: 128 µg/mL
MIC [16]: 128 µg/mL
MIC [17]: 8 µg/mL
MIC [18]: 128 µg/mL
MIC [19]: 128 µg/mL
MIC [20]: 8 µg/mL
MIC [21]: 128 µg/mL
Activity [41]: inactive
Activity [42]: inactive
Activity [43]: Active
MIC [22]: 128 µg/mL
MIC [23]: 128 µg/mL
MIC [24]: < 0.25 µg/mL
Activity [44]: Active
MIC [26]: < 0.25 µg/mL
MIC [27]: 128 µg/mL
Activity [45]: Active
MIC [28]: 8 µg/mL
Activity [46]: Active
MIC [29]: < 0.25 µg/mL
Activity [47]: Active
Activity [48]: Active
MIC [30]: 128 µg/mL
MIC [31]: 128 µg/mL
Activity [49]: Active
MIC [32]: 64 µg/mL
Activity [50]: Active
MIC [33]: 128 µg/mL
MIC [34]: 128 µg/mL
MIC [35]: 128 µg/mL
MIC [36]: 128 µg/mL
Activity [51]: Active

C[C@H]1COc2c(N3CCN(C)CC3)c(F)cc3c(=O)c(C(=O)O)cn1c23.C[C@H]1COc2c(N3CCN(C)CC3)c(F)cc3c(=O)c(C(=O)O)cn1c23.O [LEVOFLOXACIN]
MIC [1]: 2 µg/mL
MIC [2]: < 0.25 µg/mL
MIC [3]: 2 µg/mL
MIC [5]: 2 µg/mL
MIC [6]: 2 µg/mL
MIC [7]: 2 µg/mL
MIC [8]: 2 µg/mL
MIC [9]: 2 µg/mL
MIC [10]: 2 µg/mL
MIC [11]: 2 µg/mL
MIC [12]: 2 µg/mL
MIC [13]: 2 µg/mL
MIC [14]: 2 µg/mL
MIC [15]: 2 µg/mL
MIC [16]: 2 µg/mL
MIC [17]: 2 µg/mL
MIC [18]: 2 µg/mL
MIC [19]: 2 µg/mL
MIC [20]: < 0.25 µg/mL
MIC [21]: 2 µg/mL
MIC [22]: 2 µg/mL
MIC [23]: 2 µg/mL
MIC [25]: 2 µg/mL
MIC [26]: < 0.25 µg/mL
MIC [27]: 2 µg/mL
MIC [28]: < 0.25 µg/mL
MIC [29]: < 0.25 µg/mL
MIC [30]: 2 µg/mL
MIC [31]: 2 µg/mL
MIC [32]: 2 µg/mL
MIC [33]: 2 µg/mL
MIC [34]: 2 µg/mL
MIC [35]: 2 µg/mL
MIC [36]: 2 µg/mL
